Measured values published in US20230158157A1, “POTENT AND SELECTIVE DEGRADERS OF ALK” (DANA-FARBER CANCER INSTITUTE, INC., priority 2020, published 2023).

Experiments:
Type in all cases: cell-based
H3122 cells = assay: CTG; conditions: Homo sapiens, NCI-H3122; Table 3; read-out: CTG IC50
EML4-ALK = target: T1, EML4-ALK (Homo sapiens, UniProt Q9UM73); assay: EML4-ALK HiBit degradation assay in CRISPR-tagged H3122 cells (Nano-Glo HiBit Lytic Detection); conditions: Table 3, H3122 cells, 16 hours
T1 construct: endogenous in cells; host or cells: H3122 (NSCLC), single-cell clone after CRISPR knock-in of HiBit; the other entry of the earlier key: EML4 (Q9HC35, Echinoderm microtubule-associated protein-like 4)
T1 sequence (Q9UM73 with tags, fused parts or gaps): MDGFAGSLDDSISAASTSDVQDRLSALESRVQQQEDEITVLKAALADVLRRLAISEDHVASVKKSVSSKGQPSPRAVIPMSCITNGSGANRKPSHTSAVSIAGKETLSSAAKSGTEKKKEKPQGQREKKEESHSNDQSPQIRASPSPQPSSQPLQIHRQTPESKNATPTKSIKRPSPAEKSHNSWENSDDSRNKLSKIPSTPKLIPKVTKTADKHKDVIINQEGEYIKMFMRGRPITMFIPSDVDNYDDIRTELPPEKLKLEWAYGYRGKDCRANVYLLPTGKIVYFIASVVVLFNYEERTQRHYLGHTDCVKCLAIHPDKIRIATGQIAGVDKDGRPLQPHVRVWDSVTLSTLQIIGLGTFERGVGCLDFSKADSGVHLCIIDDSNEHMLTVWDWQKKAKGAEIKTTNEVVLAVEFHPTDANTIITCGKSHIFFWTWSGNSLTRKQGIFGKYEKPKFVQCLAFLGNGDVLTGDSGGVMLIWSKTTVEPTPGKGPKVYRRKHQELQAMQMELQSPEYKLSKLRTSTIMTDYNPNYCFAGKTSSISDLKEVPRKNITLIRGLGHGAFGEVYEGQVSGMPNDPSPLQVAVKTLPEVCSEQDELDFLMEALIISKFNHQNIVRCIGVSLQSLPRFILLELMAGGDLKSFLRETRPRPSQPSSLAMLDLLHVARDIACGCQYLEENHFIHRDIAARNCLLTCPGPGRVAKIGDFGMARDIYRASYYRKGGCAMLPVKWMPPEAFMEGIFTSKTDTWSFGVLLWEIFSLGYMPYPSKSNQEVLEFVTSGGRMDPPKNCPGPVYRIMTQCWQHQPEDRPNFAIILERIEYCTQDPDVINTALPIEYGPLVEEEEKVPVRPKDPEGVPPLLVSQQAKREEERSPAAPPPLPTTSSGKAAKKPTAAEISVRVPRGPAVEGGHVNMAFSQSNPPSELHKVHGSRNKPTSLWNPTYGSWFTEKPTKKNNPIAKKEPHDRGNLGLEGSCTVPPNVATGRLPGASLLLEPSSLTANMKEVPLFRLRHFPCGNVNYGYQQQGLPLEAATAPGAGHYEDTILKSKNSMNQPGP

WT EML4-ALK V3 = target: T2, WT EML4-ALK V3 (Homo sapiens, UniProt Q9UM73); assay: Western blot of pALK Tyr1507, ALK and tubulin in WT EML4-ALK V3 Ba/F3 cells
T2 construct: expressed in transfected cells; host or cells: Ba/F3; the other entry of the earlier key: EML4 (Q9HC35, Echinoderm microtubule-associated protein-like 4)
T2 sequence (Q9UM73 1058-1620 limits assumed): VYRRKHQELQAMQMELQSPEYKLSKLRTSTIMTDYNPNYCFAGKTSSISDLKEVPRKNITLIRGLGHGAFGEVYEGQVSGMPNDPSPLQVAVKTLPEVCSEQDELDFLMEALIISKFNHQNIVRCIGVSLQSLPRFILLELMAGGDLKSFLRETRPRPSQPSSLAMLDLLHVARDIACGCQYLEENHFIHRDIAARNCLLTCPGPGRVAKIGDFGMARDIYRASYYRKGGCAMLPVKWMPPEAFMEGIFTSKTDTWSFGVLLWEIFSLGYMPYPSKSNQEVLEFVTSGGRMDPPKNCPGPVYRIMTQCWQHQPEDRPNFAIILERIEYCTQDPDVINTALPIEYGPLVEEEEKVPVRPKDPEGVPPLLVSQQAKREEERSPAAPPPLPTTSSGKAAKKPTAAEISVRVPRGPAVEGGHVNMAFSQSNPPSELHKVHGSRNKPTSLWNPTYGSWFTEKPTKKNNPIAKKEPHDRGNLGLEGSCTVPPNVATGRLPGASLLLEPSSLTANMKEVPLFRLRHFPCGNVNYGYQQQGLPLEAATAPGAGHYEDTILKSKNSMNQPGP
Experimental: (§1) Cells treated with DMSO, compound 96, negative control of 96 or Loratinib at indicated concentrations (nM).
(§2) The cells were collected and washed with PBS buffer. Cell lysates were prepared by using NP40 lysis buffer (Invitrogen™) supplemented with complete protease inhibitor cocktail (Roche), PhosSTOP™ phosphatase inhibitor cocktail (Roche) and PMSF (1 mM). The lysates were cleared by centrifugation and resolved using Bolt™ 4-12% Bis-Tris plus gels and Western blotted to detect proteins of interest. Antibodies to phospho-ALK^Tyr1507 and tubulin (#14678S and #3873, Cell Signaling Technologies®) were used according to the manufacturers' instructions. For Western Blot visualization, Odyssey® Clx (Li-cor) was utilized.

FAK = target: T3, FAK (Homo sapiens, UniProt Q05397); assay: FAK degradation (H3122 cells)
T3 construct: FAK Degradation; endogenous in cells; host or cells: H3122
T3 sequence (Q05397 whole entry): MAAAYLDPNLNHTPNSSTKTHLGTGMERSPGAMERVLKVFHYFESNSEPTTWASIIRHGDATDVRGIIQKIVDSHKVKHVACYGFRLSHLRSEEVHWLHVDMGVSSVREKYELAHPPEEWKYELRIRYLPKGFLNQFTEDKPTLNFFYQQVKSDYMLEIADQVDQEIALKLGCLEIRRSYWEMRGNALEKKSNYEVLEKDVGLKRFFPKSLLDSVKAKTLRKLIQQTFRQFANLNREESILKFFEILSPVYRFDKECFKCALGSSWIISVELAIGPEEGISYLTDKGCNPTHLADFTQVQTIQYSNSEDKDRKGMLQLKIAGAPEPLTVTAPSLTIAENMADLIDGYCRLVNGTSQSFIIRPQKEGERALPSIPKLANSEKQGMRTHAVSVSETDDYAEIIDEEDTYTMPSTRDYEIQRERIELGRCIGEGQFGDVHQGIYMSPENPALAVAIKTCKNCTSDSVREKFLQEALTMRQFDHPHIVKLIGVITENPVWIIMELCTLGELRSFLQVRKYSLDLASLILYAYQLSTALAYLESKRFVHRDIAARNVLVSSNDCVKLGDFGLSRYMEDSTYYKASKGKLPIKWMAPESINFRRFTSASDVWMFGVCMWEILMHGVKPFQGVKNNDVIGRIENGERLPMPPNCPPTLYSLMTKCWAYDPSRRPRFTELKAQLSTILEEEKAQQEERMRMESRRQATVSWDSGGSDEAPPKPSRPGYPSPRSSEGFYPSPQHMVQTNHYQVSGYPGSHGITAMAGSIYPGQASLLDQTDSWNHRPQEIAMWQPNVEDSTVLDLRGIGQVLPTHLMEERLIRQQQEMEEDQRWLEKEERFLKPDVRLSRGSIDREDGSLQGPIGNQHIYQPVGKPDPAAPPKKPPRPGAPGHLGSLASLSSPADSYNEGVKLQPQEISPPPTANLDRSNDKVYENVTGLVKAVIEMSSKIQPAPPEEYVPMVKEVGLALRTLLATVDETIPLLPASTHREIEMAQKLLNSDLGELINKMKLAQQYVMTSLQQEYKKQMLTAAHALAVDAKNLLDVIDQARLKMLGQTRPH

G1202R EML4-ALK V3 = target: T4, G1202R EML4-ALK V3 (Homo sapiens, UniProt Q9UM73, G1202R); assay: Western blot of pALK Tyr1507, ALK and tubulin in G1202R EML4-ALK V3 Ba/F3 cells
T4 construct: expressed in transfected cells; host or cells: Ba/F3; the other entry of the earlier key: EML4 (Q9HC35, Echinoderm microtubule-associated protein-like 4)
T4 sequence (Q9UM73 1058-1620 G1202R limits assumed): as the sequence (Q9UM73 1058-1620 limits assumed) above, with G145R counted along it
Experimental: as §1, §2

[1] = compared to Alectinib and Lorlatinib

Structure (SMILES): COc1cc(C2CCN(CCCC#Cc3cccc4c3CN(C3CCC(=O)NC3=O)C4=O)CC2)c(C)cc1Nc1ncc(Cl)c(Nc2ccccc2S(=O)(=O)C(C)C)n1 (stereo not drawn) [compound 96, 3-(4-(5-(4-(4-((5-chloro-4-((2-(isopropylsulfonyl)phenyl)amino)pyrimidin-2-yl)amino)-5-methoxy-2-methylphenyl)piperidin-1-yl)pent-1-yn-1-yl)-1-oxoisoindolin-2-yl)piperidine-2,6-dione]
- IC50 (H3122 cells): 12 nM
- Dmax (EML4-ALK; NCI-H3122, read-out: ALK Degradation (H3122 cells) Dmax): 79%
- DC50 (EML4-ALK; read-out: ALK Degradation (H3122 cells) DC50): 3 nM
- ALK degradation by Western blot (WT EML4-ALK V3; FIG. 1A, 1C): potent degrader
- pALK inhibition by Western blot (WT EML4-ALK V3; [1]): significantly improved pALK inhibition compared to Alectinib and Lorlatinib
- Dmax (FAK; NCI-H3122, Table 3): 92%
- DC50 (FAK; Table 3): 2 nM
- ALK degradation by Western blot (G1202R EML4-ALK V3; FIG. 1B, 1D): potent degrader
- pALK inhibition by Western blot (G1202R EML4-ALK V3; [1]): significantly improved pALK inhibition compared to Alectinib and Lorlatinib
